# Reference: patent publication EP4667458A1 (Kanaph Therapeutics Inc., priority 2023, dated 2024)
# Biological target: T1, KRAS^G12C::SOS1 (Homo sapiens, UniProt Q07889)
# T1 sequence (Q07889 1-1333): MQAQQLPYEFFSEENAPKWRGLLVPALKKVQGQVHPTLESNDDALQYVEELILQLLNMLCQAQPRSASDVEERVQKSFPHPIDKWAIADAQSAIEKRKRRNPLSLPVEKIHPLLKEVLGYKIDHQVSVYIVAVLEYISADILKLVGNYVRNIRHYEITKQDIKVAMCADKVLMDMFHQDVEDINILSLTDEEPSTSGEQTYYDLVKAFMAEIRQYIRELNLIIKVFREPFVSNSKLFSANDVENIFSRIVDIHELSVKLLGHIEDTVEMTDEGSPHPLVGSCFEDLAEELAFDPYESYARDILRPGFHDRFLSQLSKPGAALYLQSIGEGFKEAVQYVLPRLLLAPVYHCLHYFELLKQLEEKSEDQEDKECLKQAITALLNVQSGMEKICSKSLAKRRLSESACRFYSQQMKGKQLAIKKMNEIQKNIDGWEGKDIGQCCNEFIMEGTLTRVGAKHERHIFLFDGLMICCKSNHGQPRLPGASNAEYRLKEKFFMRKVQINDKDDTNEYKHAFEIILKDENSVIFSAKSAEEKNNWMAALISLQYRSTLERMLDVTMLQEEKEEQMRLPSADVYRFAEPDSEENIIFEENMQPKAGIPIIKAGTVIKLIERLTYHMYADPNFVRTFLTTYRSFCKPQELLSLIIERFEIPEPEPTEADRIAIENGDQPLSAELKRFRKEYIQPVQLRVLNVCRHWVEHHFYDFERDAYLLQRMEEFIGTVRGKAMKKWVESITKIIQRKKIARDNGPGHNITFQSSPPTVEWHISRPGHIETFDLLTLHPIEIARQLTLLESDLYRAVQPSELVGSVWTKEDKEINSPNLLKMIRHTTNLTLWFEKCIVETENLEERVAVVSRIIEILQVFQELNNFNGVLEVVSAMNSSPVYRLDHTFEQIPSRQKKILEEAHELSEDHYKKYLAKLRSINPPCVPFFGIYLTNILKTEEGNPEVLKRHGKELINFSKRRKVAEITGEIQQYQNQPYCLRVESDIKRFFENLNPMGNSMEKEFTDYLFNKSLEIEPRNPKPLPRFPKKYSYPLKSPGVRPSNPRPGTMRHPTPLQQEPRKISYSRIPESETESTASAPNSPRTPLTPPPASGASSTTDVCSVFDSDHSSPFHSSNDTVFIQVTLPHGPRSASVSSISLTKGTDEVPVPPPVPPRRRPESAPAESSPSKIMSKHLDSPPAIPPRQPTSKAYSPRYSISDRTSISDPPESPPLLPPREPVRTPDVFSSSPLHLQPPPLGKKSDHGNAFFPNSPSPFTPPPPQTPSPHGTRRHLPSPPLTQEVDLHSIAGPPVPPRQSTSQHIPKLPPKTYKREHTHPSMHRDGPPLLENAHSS
# Experiment: KRAS G12C::SOS1 protein-protein interaction (PPI) inhibition assay (HTRF binding kit)
row,SMILES,IC50 [µM]
1,"C[C@@H](O)c1cccc(-n2nc(C(=O)N[C@H](C)c3cc(N)cc(C(F)(F)F)c3)ccc2=O)c1 [Example 173, N-[(1R)-1-[3-amino-5-(trifluoromethyl)phenyl]ethyl]-1-[3-[(1R)-1-hydroxyethyl]phenyl]-6-oxo-pyridazine-3-carboxamide]",< 1
2,"C[C@H](O)c1cccc(-n2nc(C(=O)N[C@H](C)c3cc(N)cc(C(F)(F)F)c3)ccc2=O)c1 [Example 174, N-[(1R)-1-[3-amino-5-(trifluoromethyl)phenyl]ethyl]-1-[3-[(1S)-1-hydroxyethyl]phenyl]-6-oxo-pyridazine-3-carboxamide]",< 1
3,"C[C@@H](NC(=O)c1ccc(=O)n(-c2cccnc2)c1)c1cccc(C(F)(F)CO)c1F [Example 175, N-[(1R)-1-[3-(1,1-difluoro-2-hydroxy-ethyl)-2-fluoro-phenyl]ethyl]-6-oxo-1-(3-pyridyl)pyridine-3-carboxamide]",1 to 10
4,"C[C@@H](NC(=O)c1ccc(=O)n(-c2cccnc2)c1)c1cc(N)cc(C(F)(F)F)c1 [Example 176, N-[(1R)-1-[3-amino-5-(trifluoromethyl)phenyl]ethyl]-6-oxo-1-(3-pyridyl)pyridine-3-carboxamide]",> 10
5,"COc1ccc(F)c(-n2cc(C(=O)N[C@H](C)c3cccc(C(F)(F)CO)c3F)ccc2=O)c1 [Example 177, N-[(1R)-1-[3-(1,1-difluoro-2-hydroxy-ethyl)-2-fluoro-phenyl]ethyl]-1-(2-fluoro-5-methoxyphenyl)-6-oxo-pyridine-3-carboxamide]",< 1
6,"COc1ccc(F)c(-n2cc(C(=O)N[C@H](C)c3cc(N)cc(C(F)(F)F)c3)ccc2=O)c1 [Example 178, N-[(1R)-1-[3-amino-5-(trifluoromethyl)phenyl]ethyl]-1-(2-fluoro-5-methoxy-phenyl)-6-oxo-pyridine-3-carboxamide]",< 1
7,"COc1ccc(-n2cc(C(=O)N[C@H](C)c3cccc(C(F)(F)CO)c3F)ccc2=O)c(F)c1 [Example 179, N-[(1R)-1-[3-(1,1-difluoro-2-hydroxy-ethyl)-2-fluoro-phenyl]ethyl]-1-(2-fluoro-4-methoxyphenyl)-6-oxo-pyridine-3-carboxamide]",< 1
8,"COc1ccc(-n2cc(C(=O)N[C@H](C)c3cc(N)cc(C(F)(F)F)c3)ccc2=O)c(F)c1 [Example 180, N-[(1R)-1-[3-amino-5-(trifluoromethyl)phenyl]ethyl]-1-(2-fluoro-4-methoxy-phenyl)-6-oxo-pyridine-3-carboxamide]",< 1
9,"C[C@@H](NC(=O)c1ccc(=O)n(-c2ccccc2F)c1)c1cccc(C(F)(F)CO)c1F [Example 181, N-[(1R)-1-[3-(1,1-difluoro-2-hydroxy-ethyl)-2-fluoro-phenyl]ethyl]-1-(2-fluorophenyl)-6-oxo-pyridine-3-carboxamide]",< 1
10,"COc1ccc(F)c(-n2nc(C(=O)N[C@H](C)c3cccc(C(F)(F)CO)c3F)ccc2=O)c1 [Example 182, N-[(1R)-1-[3-(1,1-difluoro-2-hydroxy-ethyl)-2-fluoro-phenyl]ethyl]-1-(2-fluoro-5-methoxyphenyl)-6-oxo-pyridazine-3-carboxamide]",< 1
11,"COc1ccc(F)c(-n2nc(C(=O)N[C@H](C)c3cc(N)cc(C(F)(F)F)c3)ccc2=O)c1 [Example 183, N-[(1R)-1-[3-amino-5-(trifluoromethyl)phenyl]ethyl]-1-(2-fluoro-5-methoxy-phenyl)-6-oxo-pyridazine-3-carboxamide]",< 1
12,"COc1cccc(-n2nc(C(=O)N[C@H](C)c3cccc(C(F)(F)CO)c3F)ccc2=O)c1F [Example 184, N-[(1R)-1-[3-(1,1-difluoro-2-hydroxy-ethyl)-2-fluoro-phenyl]ethyl]-1-(2-fluoro-3-methoxyphenyl)-6-oxo-pyridazine-3-carboxamide]",< 1
13,"COc1cccc(-n2nc(C(=O)N[C@H](C)c3cc(N)cc(C(F)(F)F)c3)ccc2=O)c1F [Example 185, N-[(1R)-1-[3-amino-5-(trifluoromethyl)phenyl]ethyl]-1-(2-fluoro-3-methoxy-phenyl)-6-oxo-pyridazine-3-carboxamide]",< 1
14,"COc1cccc(-n2cc(C(=O)N[C@H](C)c3cccc(C(F)(F)CO)c3F)ccc2=O)c1F [Example 186, N-[(1R)-1-[3-(1,1-difluoro-2-hydroxy-ethyl)-2-fluoro-phenyl]ethyl]-1-(2-fluoro-3-methoxyphenyl)-6-oxo-pyridine-3-carboxamide]",< 1
15,"COc1cccc(-n2cc(C(=O)N[C@H](C)c3cc(N)cc(C(F)(F)F)c3)ccc2=O)c1F [Example 187, N-[(1R)-1-[3-amino-5-(trifluoromethyl)phenyl]ethyl]-1-(2-fluoro-3-methoxy-phenyl)-6-oxo-pyridine-3-carboxamide]",< 1
16,"C[C@@H](NC(=O)c1ccc(=O)n(-c2ccccc2)n1)c1cccc(I)c1 [Example 188, (R)-N-(1-(3-iodophenyl)ethyl)-6-oxo-1-phenyl-1,6-dihydropyridazine-3-carboxamide]",< 1
17,"CCOc1ccc(-n2nc(C(=O)N[C@H](C)c3cc(N)cc(C(F)(F)F)c3)ccc2=O)cc1 [Example 189, (R)-N-(1-(3-amino-5-(trifluoromethyl)phenyl)ethyl)-1-(4-ethoxyphenyl)-6-oxo-1,6-dihydropyridazine-3-carboxamide]",< 1
18,"C[C@@H](NC(=O)c1ccc(=O)n(-c2ccccc2)n1)c1cccc(S(F)(F)(F)(F)F)c1 [Example 190, 6-oxo-N-[(1R)-1-[3-(pentafluoro-λ6-sulfanyl)phenyl]ethyl]-1-phenyl-pyridazine-3-carboxamide]",< 1
19,"C[C@@H](NC(=O)c1ccc(=O)n(-c2ccccc2F)n1)c1cccc(C(F)(F)C(C)(C)O)c1F [Example 192, N-[(1R)-1-[3-(1,1-difluoro-2-hydroxy-2-methyl-propyl)-2-fluoro-phenyl]ethyl]-1-(2-fluorophenyl)-6-oxo-pyridazine-3-carboxamide]",< 1
20,"COc1cc(-n2nc(C(=O)N[C@H](C)c3cccc(C(F)(F)CO)c3F)ccc2=O)ccn1 [Example 193, N-[(1R)-1-[3-(1,1-difluoro-2-hydroxy-ethyl)-2-fluoro-phenyl]ethyl]-1-(2-methoxy-4-pyridyl)-6-oxo-pyridazine-3-carboxamide]",< 1
21,"C[C@@H](NC(=O)c1ccc(=O)n(-c2cccc(C(=O)N3CCCC3)c2)n1)c1cccc(C(F)(F)CO)c1F [Example 194, N-[(1R)-1-[3-(1,1-difluoro-2-hydroxy-ethyl)-2-fluoro-phenyl]ethyl]-6-oxo-1-[3-(pyrrolidine-1-carbonyl)phenyl]pyridazine-3-carboxamide]",< 1
22,"C[C@@H](NC(=O)c1ccc(=O)n(-c2ccc(OC(F)F)cc2)n1)c1cccc(C(F)(F)CO)c1F [Example 195, N-[(1R)-1-[3-(1,1-difluoro-2-hydroxy-ethyl)-2-fluoro-phenyl]ethyl]-1-[4-(difluoromethoxy)phenyl]-6-oxo-pyridazine-3-carboxamide]",< 1
23,"COc1cc(-n2nc(C(=O)N[C@H](C)c3cc(N)cc(C(F)(F)F)c3)ccc2=O)ccn1 [Example 196, N-[(1R)-1-[3-amino-5-(trifluoromethyl)phenyl]ethyl]-1-(2-methoxy-4-pyridyl)-6-oxo-pyridazine-3-carboxamide]",< 1
24,"C[C@@H](NC(=O)c1ccc(=O)n(-c2cccc(C(=O)N3CCCC3)c2)n1)c1cc(N)cc(C(F)(F)F)c1 [Example 197, N-[(1R)-1-[3-amino-5-(trifluoromethyl)phenyl]ethyl]-6-oxo-1-[3-(pyrrolidine-1-carbonyl)phenyl]pyridazine-3-carboxamide]",< 1
25,"C[C@@H](NC(=O)c1ccc(=O)n(-c2ccc(OC(F)F)cc2)n1)c1cc(N)cc(C(F)(F)F)c1 [Example 198, N-[(1R)-1-[3-amino-5-(trifluoromethyl)phenyl]ethyl]-1-[4-(difluoromethoxy)phenyl]-6-oxo-pyridazine-3-carboxamide]",< 1
26,"COc1ccc(-n2cc(C(=O)N[C@H](C)c3cc(N)cc(C(F)(F)F)c3)ccc2=O)cc1 [Example 199, N-[(1R)-1-[3-amino-5-(trifluoromethyl)phenyl]ethyl]-1-(4-methoxyphenyl)-6-oxo-pyridine-3-carboxamide]",< 1
